Patent publication US20250241985A1, “NANOLIPOSOME COMPOSITIONS AND METHODS OF TREATING STROKE” (United States Government As Represented By The Department …, priority 2020, published 2025)

Key:
HO-1, NQO1 and SOD1 = assay: Gene (qPCR) and protein expression of antioxidant enzymes in endothelial cells; type: cell-based, human; details: medin 5 μM, 20 hours
Experimental: (§1) Methods. Recombinant medin was expressed in Lemo 21 (DE3) cells using POPINS-medin (Karamanova N, et al. J Am Heart Assoc 2020; 9:e014810) and confirmed to have >95% purity by SDS-PAGE. GM1L was prepared from phosphatidylcholine, cholesterol and monosialoganglioside (molar ratios 70:25:5) using lipid hydration method (Karamanova N, et al. J Am Heart Assoc 2020; 9:e014810). Primary human brain microvascular ECs (Lonza, passages 4-8) were exposed for 20 hours to 4 different treatments (vehicle control, medin 5 μM, medin 5 μM+GM1L 300 μg/ml or GM1L 300 μg/ml) under two aerobic conditions: physoxia (5% oxygen) or hypoxia (1% oxygen). Cell viability was assessed using calcein-AM fluorescence (based on principle of intact esterases in viable cells that releases fluorescent calcein) using flow cytometry (measurements expressed relative to control ECs exposed to room air). Gene expression of antioxidant enzymes heme-oxygenase 1 (HO1), NADPH quinone dehydrogenase (NQO1) and superoxide dismutase 1 (SOD1) were measured separately by qPCR on ECs.
Nrf2 is a transcription factor that is a master regulator of production of antioxidant enzymes and protective mechanisms against hypoxic/ischemic stress and inflammatory stress.

[1] = system: human brain microvascular endothelial cells (HBMVECs); assay: Viability of human brain microvascular endothelial cells under physoxia/hypoxia, with or without medin (calcein-AM, flow cytometry); type: cell-based; details: medin 5 μM, 20 hours; for cell viability under hypoxic condition: hypoxia (1% oxygen)
Experimental: as §1
Cell viability was assessed using calcein-AM fluorescence using flow cytometry. Measurements are expressed relative to control HBMVECs exposed to room air.

[2] = system: stroke injury, preclinical models; details: 150 mg/kg of free monosialoganglioside in saline; cited from earlier work

Substance	antioxidant enzyme gene expression versus control (HO-1, NQO1 and SOD1)	cell viability under hypoxic condition [1]	cell viability under hypoxic condition ([1]; listed as Medin)	cell viability under physoxic condition ([1]; physoxia (5% oxygen))	reduction in infarct volume, prior study [2] [%]
medin: 50-amino acid amyloidogenic peptide; recombinant, expressed in Lemo 21 (DE3) cells (RLDKQGNFNAWVAGSYGNDQWLQVDLGSSKEVTGIITQGARNFGSVQFVA; Medin; UniProt Q08431 268-317, looked up)	did not elicit a change	more so	significant additive adverse effect	reduced viability	–
monosialoganglioside	–	–	–	–	6.8
